# Reference: patent US20200188469A1, “COMPOUNDS AND METHODS FOR INHIBITING CDK5 ALLEVIATE CARDIAC PHENOTYPES IN TIMOTHY SYNDROME AND RELATED CONDITIONS” (priority 2017, published 2020)
# Entries after “also recorded” stand apart in the source; their conditions may differ.
# Key:
# [1] = test system: TS cardiomyocytes derived from hiPSCs; conditions: high dose; cited from earlier work
# [2] = test system: Cav1.2 with Timothy syndrome mutation; conditions: heterologous over-expression system; cited from earlier work
# [3] = test system: Cav1.2 channels; assay: Voltage-clamp recordings of Ba2+ currents (voltage-dependent inactivation of Cav1.2); format: cell-based, human; conditions: TS cardiomyocytes with CDK5 DN expression; 5 μM, 3 min
# Procedure: The Timothy syndrome and control iPSCs were differentiated into cardiomyocytes following a protocol reported previously (Song et al., 2015) and infected with the lentiviruses at day 19-21 or day 25-27 after cardiac differentiation. The cardiomyocytes were dissociated into single cells for whole-cell patch-clamp recordings at day 31. Whole-cell patch-clamp recordings of iPSC-derived cardiomyocytes were conducted using a MultiClap 700B patch-clamp amplifier (Molecular Devices) and an inverted microscope equipped with differential interface optics (Nikon, Ti-U). The glass pipettes were prepared using borosilicate glass (Sutter Instrument, BF150-110-10) using a micropipette puller (Sutter Instrument, Model P-97). Voltage-clamp measurements were conducted using an extracellular solution consisting of 5 mM BaCl2, 160 mM TEA and 10 mM HEPES (pH7.4 at 25° C.) and a pipette solution of 125 mM CsCl, 0.1 mM CaCl2, 10 mM EGTA, 1 mM MgCl2, 4 mM MgATP and 10 mM HEPES (pH 7.4 with CsOH at 25° C.). Two pulse protocols were used. One protocol was that cells were held at −90 mV and then depolarized to −10 mV for 400 ms at a rate of 0.1 Hz for the Ba^2+ current recordings. […] Recorded action potentials were analyzed using Clampfit 10.4 (Axon Instruments).
# [4] = test system: Timothy syndrome cardiomyocytes; assay: Contraction assay with Matlab-based analysis and calcium imaging (Roscovitine analog and CDK inhibitor tests); format: cell-based, human; conditions: two rounds: cardiomyocyte clusters 24 hours, intact monolayer 2 hours after treatment; 5 μM, (R)-CR8 1 or 2 μM
# Procedure: Two rounds of chemical tests were conducted to test the compounds. The first round of chemical test was conducted using Timothy syndrome cardiomyocyte clusters isolated from the monolayer cardiomyocytes to screen the compounds efficiently and to identify the positive compounds that could increase the spontaneous beating rate and decrease the contraction irregularity of the Timothy syndrome cardiomyocyte clusters (FIG. 1C).
# The working solution of each compound was made by diluting the stock solution in our cardiomyocyte culture media to a final concentration of 5 μM except for (R)-CR8, which was diluted to a final concentration of 1 or 2 μM. The contraction analysis was performed as reported previously (Yazawa et al., 2011). The movies were taken before the treatment, and 24 hours after the treatment of each compound from the Timothy syndrome cardiomyocyte clusters isolated from the monolayer cardiomyocytes for the first round of test. The movies were taken before the treatment, and 2 hours after the treatment of each positive compound on the intact monolayer Timothy syndrome cardiomyocytes for the second round of test. The contraction rate and the irregularity of each sample before and after treatment were compared using paired Student t-test.
# [5] = withdrawn from US market in 2000; cited from earlier work
# [6] = target: T1, CDK5/p35 (Homo sapiens, UniProt Q00535); assay: In vitro kinase assay (ADP-Glo luminescence); format: biochemical; conditions: wild-type II-III loop or C-term of Cav1.2 as substrates
# T1 construct: purchased Promega V3271
# Source text: To determine whether CDK5 phosphorylates Cav1.2, an in vitro kinase assay was designed. The wild-type II-III loop or the C-term of Cav1.2 was used as the substrates in this assay. Mutant II-III loop and mutant C-term constructs were generated with substitutions of serine/threonine to glycine or alanine in all CDK5 consensus sequences as negative controls. The phosphorylation of the substrates by CDK5 consumes ATP and produces ADP, which is then converted into luminescence by detection reagents in the assay (FIG. 3D). The luminescence signal was reduced when the CDK5 inhibitor, PHA-793887 was added to the reactions using wild-type II-III loop or C-term as the substrates. […]
# To prepare the substrates, the HEK 293T cells were transfected with the plasmid containing either the FLAG-tagged wild-type II-III loop or mutant II-III loop or wild-type C-terminus or mutant C-terminus using Lipofectamine 2000 (Thermo Fisher Scientific) following the manufacturer's protocol 24 hours after plating. […] A series of samples for a standard curve were prepared based on the manufacturer's instructions to determine the ATP-ADP conversion from the luminescence signals in every round of experiment. […] 20 ul of the samples from each tube was then transferred into a 96 well microplate and the luminescence was measured with the GloMax® 96 Microplate Luminometer (Promega).
# T1 sequence (Q00535 whole entry): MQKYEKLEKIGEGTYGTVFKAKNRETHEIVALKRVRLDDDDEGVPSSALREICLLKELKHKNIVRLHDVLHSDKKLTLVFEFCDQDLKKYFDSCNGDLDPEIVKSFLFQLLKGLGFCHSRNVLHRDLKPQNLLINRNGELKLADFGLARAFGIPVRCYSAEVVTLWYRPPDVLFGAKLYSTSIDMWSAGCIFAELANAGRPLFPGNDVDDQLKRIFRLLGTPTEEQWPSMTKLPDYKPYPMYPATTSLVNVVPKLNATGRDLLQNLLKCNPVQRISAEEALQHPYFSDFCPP
# T1 sequence (Q15078 whole entry partner): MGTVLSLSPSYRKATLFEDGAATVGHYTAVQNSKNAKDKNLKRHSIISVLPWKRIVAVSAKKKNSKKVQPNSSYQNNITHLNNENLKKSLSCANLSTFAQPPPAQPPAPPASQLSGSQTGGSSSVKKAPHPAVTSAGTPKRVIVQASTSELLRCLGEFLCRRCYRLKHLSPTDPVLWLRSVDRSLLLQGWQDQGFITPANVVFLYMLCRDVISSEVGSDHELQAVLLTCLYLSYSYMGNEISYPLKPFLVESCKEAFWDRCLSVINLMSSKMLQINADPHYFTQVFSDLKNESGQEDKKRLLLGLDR
smiles,measurement,setting,value
CC[C@H](CO)Nc1nc(NCc2ccccc2)c2ncn(C(C)C)c2n1 [Roscovitine],cardiac phenotypes of TS cardiomyocytes,[1],rescue the cardiac phenotypes
same,voltage-dependent inactivation of Cav1.2 with Timothy syndrome mutation,[2],enhance the voltage-dependent inactivation
same,voltage-dependent inactivation of Cav1.2,[3],did not further enhance; also recorded: did not significantly enhance
COc1ccc(CNc2nc(NCc3ccc(OC)cc3)c3ncn(C4CCCCC4)c3n2)cc1 [Myoseverin B],"effects on Timothy syndrome cardiomyocytes (spontaneous beating rate, contraction irregularity)",[4],beneficial effects
COc1cc(N)c(Cl)cc1C(=O)NC1CCN(CCCOc2ccc(F)cc2)CC1OC (centres unmarked) [cisapride],side effect,[5],QT prolongation
CC(C)CC(=O)Nc1[nH]nc2c1CN(C(=O)C1CCN(C)CC1)C2(C)C [PHA-793887],"effects on Timothy syndrome cardiomyocytes (spontaneous beating rate, contraction irregularity)",[4],beneficial effects
same,luminescence signal (phosphorylation of substrate by CDK5),[6],reduced; also recorded: blocked the phosphorylation
CC[C@H](CO)Nc1nc(NCc2ccc(-c3ccccn3)cc2)c2ncn(C(C)C)c2n1 [CR8],"effects on Timothy syndrome cardiomyocytes (spontaneous beating rate, contraction irregularity)",[4],beneficial effects
